Experimental data as given in BindingDB's records for doi:10.1021/jm00160a049 (1986).

Biological target: T1, Renin (Homo sapiens, UniProt P00797)
T1 sequence (P00797 whole entry): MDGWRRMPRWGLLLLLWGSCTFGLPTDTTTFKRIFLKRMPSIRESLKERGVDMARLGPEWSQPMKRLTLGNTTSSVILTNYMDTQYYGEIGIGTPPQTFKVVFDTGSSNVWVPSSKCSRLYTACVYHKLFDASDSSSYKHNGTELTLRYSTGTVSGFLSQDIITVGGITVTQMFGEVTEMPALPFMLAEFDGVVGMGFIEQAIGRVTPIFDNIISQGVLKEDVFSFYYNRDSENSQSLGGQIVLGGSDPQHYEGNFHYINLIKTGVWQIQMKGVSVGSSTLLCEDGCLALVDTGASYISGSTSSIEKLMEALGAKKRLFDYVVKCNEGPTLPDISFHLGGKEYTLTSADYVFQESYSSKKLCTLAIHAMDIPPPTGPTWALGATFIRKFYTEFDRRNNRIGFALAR
Test: ChEBML_195744
From the text: Inhibition of human plasma renin

IC50: 0.65 nM
Structure (SMILES): CC[C@H](C)[C@H](NC(=O)[C@@H](C[C@H](O)[C@H](CC(C)C)NC(=O)[C@H](Cc1c[nH]cn1)N(C)C(=O)[C@H](Cc1ccccc1)NC(=O)[C@@H]1CCCN1C(=O)OC(C)(C)C)C(C)C)C(=O)NCc1ccccn1 [2-(1-{[1-(2-Hydroxy-1-isobutyl-5-methyl-4-{2-methyl-1-[(pyridin-2-ylmethyl)-carbamoyl]-butylcarbamoyl}-hexylcarbamoyl)-2-(3H-imidazol-4-yl)-ethyl]-methyl-carbamoyl}-2-phenyl-ethylcarbamoyl)-pyrrolidine-1-carboxylic acid tert-butyl ester]
